Source: ChEMBL document CHEMBL4725357, “Elucidating the Structural Requirement of Uridylpeptide Antibiotics for Antibacterial Activity” (J Med Chem, 2020)
≈ marks a conversion by molar mass, not a printed value. Values belong to the molecule of their own block, whether it stands above or below them.

Tests used:
[1] = Inhibition of Staphylococcus aureus MraY using UDPMurNAc-dansylpentapeptide as substrate incubated for 3 hrs by fluorescence method
Pseudomonas aeruginosa [2] = test: Antibacterial activity against Pseudomonas aeruginosa serotype K IID1012 incubated for 18 hrs by CLSI based broth microdilution method; assay type: functional
Pseudomonas aeruginosa [3] = test: Antibacterial activity against Pseudomonas aeruginosa serotype M IID5018 incubated for 18 hrs by CLSI based broth microdilution method; assay type: functional
Pseudomonas aeruginosa [4] = test: Antibacterial activity against Pseudomonas aeruginosa serotype J IID1011 incubated for 18 hrs by CLSI based broth microdilution method; assay type: functional
Pseudomonas aeruginosa [5] = test: Antibacterial activity against Pseudomonas aeruginosa serotype G IID1020 incubated for 18 hrs by CLSI based broth microdilution method; assay type: functional
Pseudomonas aeruginosa [6] = test: Antibacterial activity against Pseudomonas aeruginosa serotype C IID1021 incubated for 18 hrs by CLSI based broth microdilution method; assay type: functional
Pseudomonas aeruginosa [7] = test: Antibacterial activity against Pseudomonas aeruginosa PAO1 incubated for 18 hrs by CLSI based broth microdilution method; assay type: functional
Pseudomonas aeruginosa [8] = test: Antibacterial activity against Pseudomonas aeruginosa serotype L IID5141 incubated for 18 hrs by CLSI based broth microdilution method; assay type: functional
Pseudomonas aeruginosa [9] = test: Antibacterial activity against Pseudomonas aeruginosa serotype E IID1130 incubated for 18 hrs by CLSI based broth microdilution method; assay type: functional
Pseudomonas aeruginosa [10] = test: Antibacterial activity against Pseudomonas aeruginosa serotype A IID1001 incubated for 18 hrs by CLSI based broth microdilution method; assay type: functional
Pseudomonas aeruginosa [11] = test: Antibacterial activity against Pseudomonas aeruginosa ATCC 27853 incubated for 18 hrs by CLSI based broth microdilution method; assay type: functional
Pseudomonas aeruginosa [12] = test: Antibacterial activity against Pseudomonas aeruginosa serotype H IID1009 incubated for 18 hrs by CLSI based broth microdilution method; assay type: functional
Pseudomonas aeruginosa [13] = test: Antibacterial activity against Pseudomonas aeruginosa isolate 1485 incubated for 18 hrs by CLSI based broth microdilution method; assay type: functional
Pseudomonas aeruginosa [14] = test: Antibacterial activity against multidrug-resistant Pseudomonas aeruginosa MDRP62 incubated for 18 hrs by CLSI based broth microdilution method; assay type: functional
[15] = Inhibition of Staphylococcus aureus MraY using UDPMurNAc-dansylpentapeptide as substrate incubated for 3 to 4 hrs by fluorescence method
Pseudomonas aeruginosa [16] = test: Antibacterial activity against Pseudomonas aeruginosa serotype B IID1013 incubated for 18 hrs by CLSI based broth microdilution method; assay type: functional
Pseudomonas aeruginosa [17] = test: Antibacterial activity against Pseudomonas aeruginosa isolate 9728b incubated for 18 hrs by CLSI based broth microdilution method; assay type: functional
Pseudomonas aeruginosa [18] = test: Antibacterial activity against Pseudomonas aeruginosa serotype B IID5004 incubated for 18 hrs by CLSI based broth microdilution method; assay type: functional
Pseudomonas aeruginosa [19] = test: Antibacterial activity against Pseudomonas aeruginosa serotype I IID1010 incubated for 18 hrs by CLSI based broth microdilution method; assay type: functional
Pseudomonas aeruginosa [20] = test: Antibacterial activity against Pseudomonas aeruginosa isolate 2867 incubated for 18 hrs by CLSI based broth microdilution method; assay type: functional
Pseudomonas aeruginosa [21] = test: Antibacterial activity against Pseudomonas aeruginosa isolate 2931 incubated for 18 hrs by CLSI based broth microdilution method; assay type: functional
Pseudomonas aeruginosa [22] = test: Antibacterial activity against Pseudomonas aeruginosa isolate 1483 incubated for 18 hrs by CLSI based broth microdilution method; assay type: functional
HepG2 = test: Cytotoxicity against human HepG2 cells after 24 hrs by CCK-8 assay; assay type: cell-based; conditions: HepG2, 24 h
Pseudomonas aeruginosa [23] = test: Antibacterial activity against Pseudomonas aeruginosa serotype B IID1007 incubated for 18 hrs by CLSI based broth microdilution method; assay type: functional
Pseudomonas aeruginosa [24] = test: Antibacterial activity against Pseudomonas aeruginosa serotype D IID1004 incubated for 18 hrs by CLSI based broth microdilution method; assay type: functional
Pseudomonas aeruginosa [25] = test: Antibacterial activity against Pseudomonas aeruginosa serotype F IID1006 incubated for 18 hrs by CLSI based broth microdilution method; assay type: functional
Pseudomonas aeruginosa [26] = test: Antibacterial activity against Pseudomonas aeruginosa serotype B IID1002 incubated for 18 hrs by CLSI based broth microdilution method; assay type: functional
Pseudomonas aeruginosa [27] = test: Antibacterial activity against Pseudomonas aeruginosa serotype M IID1015 incubated for 18 hrs by CLSI based broth microdilution method; assay type: functional

SMILES: C[C@H](N)C(=O)N(C)[C@@H](C)[C@H](NC(=O)[C@H](C)NC(=O)N[C@@H](Cc1c[nH]c2ccccc12)C(=O)O)C(=O)N/C=C1\O[C@@H](n2ccc(=O)[nH]c2=O)[C@H](O)[C@@H]1O
- MIC (Pseudomonas aeruginosa [2]): 64 µg/mL (≈ 87.9 µM)
- MIC (Pseudomonas aeruginosa [3]): > 128 µg/mL
- MIC (Pseudomonas aeruginosa [4]): > 128 µg/mL
- MIC (Pseudomonas aeruginosa [5]): > 128 µg/mL
- MIC (Pseudomonas aeruginosa [6]): 16 µg/mL (≈ 22 µM)
- MIC (Pseudomonas aeruginosa [7]): 16 µg/mL (≈ 22 µM)
- MIC (Pseudomonas aeruginosa [8]): 32 µg/mL (≈ 44 µM)
- IC50 [1]: 44 nM
- MIC (Pseudomonas aeruginosa [9]): > 128 µg/mL
- MIC (Pseudomonas aeruginosa [10]): > 128 µg/mL
- MIC (Pseudomonas aeruginosa [11]): 32 µg/mL (≈ 44 µM)
- MIC (Pseudomonas aeruginosa [12]): 32 µg/mL (≈ 44 µM)
- MIC (Pseudomonas aeruginosa [13]): 16 µg/mL (≈ 22 µM)
- MIC (Pseudomonas aeruginosa [14]): > 128 µg/mL
- IC50 [15]: 42 nM
- MIC (Pseudomonas aeruginosa [16]): > 128 µg/mL
- MIC (Pseudomonas aeruginosa [17]): > 128 µg/mL
- MIC (Pseudomonas aeruginosa [18]): 64 µg/mL (≈ 87.9 µM)
- MIC (Pseudomonas aeruginosa [19]): > 128 µg/mL
- MIC (Pseudomonas aeruginosa [20]): 32 µg/mL (≈ 44 µM)
- MIC (Pseudomonas aeruginosa [21]): > 128 µg/mL
- MIC (Pseudomonas aeruginosa [22]): > 128 µg/mL
- IC50 (HepG2): > 100000 nM
- MIC (Pseudomonas aeruginosa [23]): > 128 µg/mL
- MIC (Pseudomonas aeruginosa [24]): > 128 µg/mL
- MIC (Pseudomonas aeruginosa [25]): > 128 µg/mL
- MIC (Pseudomonas aeruginosa [26]): > 128 µg/mL
- MIC (Pseudomonas aeruginosa [27]): > 128 µg/mL

SMILES: CC(=O)N[C@H](C(=O)N/C=C1\O[C@@H](n2ccc(=O)[nH]c2=O)[C@H](O)[C@@H]1O)[C@H](C)N(C)C(=O)[C@@H](N)Cc1cccc(O)c1
- IC50 [1]: > 1000 nM

SMILES: C[C@@H]([C@H](NC(=O)[C@H](Cc1ccc(O)cc1)NC(=O)N[C@@H](Cc1c[nH]c2ccccc12)C(=O)O)C(=O)N/C=C1\O[C@@H](n2ccc(=O)[nH]c2=O)[C@H](O)[C@@H]1O)N(C)C(=O)[C@@H](N)Cc1cccc(O)c1
- MIC (Pseudomonas aeruginosa [7]): 16 µg/mL (≈ 17.5 µM)
- IC50 [1]: 0.22 nM

SMILES: C[C@H](N)C(=O)N(C)[C@@H](C)[C@H](NC(=O)[C@H](C)NC(=O)N[C@@H](Cc1c[nH]c2ccccc12)C(=O)O)C(=O)N/C=C1/CC(O)[C@H](n2ccc(=O)[nH]c2=O)O1 (some centres undefined)
- IC50 [15]: 22 nM

SMILES: C[C@@H]([C@H](NC(=O)[C@H](Cc1ccccc1)NC(=O)N[C@@H](Cc1c[nH]c2ccccc12)C(=O)O)C(=O)N/C=C1\O[C@@H](n2ccc(=O)[nH]c2=O)[C@H](O)[C@@H]1O)N(C)C(=O)[C@@H](N)Cc1cccc(O)c1
- MIC (Pseudomonas aeruginosa [7]): 16 µg/mL (≈ 17.9 µM)
- IC50 [1]: 0.6 nM

SMILES: C[C@@H](O)[C@H](NC(=O)N[C@@H](Cc1c[nH]c2ccccc12)C(=O)O)C(=O)N[C@H](C(=O)N/C=C1\O[C@@H](n2ccc(=O)[nH]c2=O)[C@H](O)[C@@H]1O)[C@H](C)N(C)C(=O)[C@@H](N)Cc1cccc(O)c1
- MIC (Pseudomonas aeruginosa [7]): 32 µg/mL (≈ 37.7 µM)
- IC50 [1]: 1.8 nM

SMILES: C[C@H](NC(=O)N[C@@H](Cc1c[nH]c2ccccc12)C(=O)O)C(=O)N[C@H](C(=O)N/C=C1\O[C@@H](n2ccc(=O)[nH]c2=O)[C@H](O)[C@@H]1O)[C@H](C)N(C)C(=O)[C@@H](N)Cc1cccc(O)c1
- MIC (Pseudomonas aeruginosa [7]): 64 µg/mL (≈ 78.1 µM)
- IC50 [1]: 1.3 nM

SMILES: CC(C)C[C@H](NC(=O)N[C@@H](Cc1c[nH]c2ccccc12)C(=O)O)C(=O)N[C@H](C(=O)N/C=C1\O[C@@H](n2ccc(=O)[nH]c2=O)[C@H](O)[C@@H]1O)[C@H](C)N(C)C(=O)[C@@H](N)Cc1cccc(O)c1
- MIC (Pseudomonas aeruginosa [7]): 32 µg/mL (≈ 37.1 µM)
- IC50 [1]: 4 nM

SMILES: CSCC[C@H](NC(=O)N[C@@H](Cc1c[nH]c2ccccc12)C(=O)O)C(=O)N[C@H](C(=O)N/C=C1\O[C@@H](n2ccc(=O)[nH]c2=O)[C@H](O)[C@@H]1O)[C@H](C)N(C)C(=O)[C@@H](N)Cc1cccc(O)c1
- MIC (Pseudomonas aeruginosa [7]): 32 µg/mL (≈ 36.4 µM)
- IC50 [1]: 1 nM

Continued, values first:

- IC50 [1]: 1.1 nM
SMILES: CCCCCCCCCCCCCCC[C@H](NC(=O)[C@@H](NC(=O)N[C@H](C(=O)O)C(C)C)[C@@H]1CCNC(=N)N1)C(=O)NCCCN[C@H](C(=O)O)[C@H](O[C@@H]1O[C@H](CN)[C@@H](O)[C@H]1O)[C@H]1O[C@@H](n2ccc(=O)[nH]c2=O)[C@H](O)[C@@H]1O

- IC50 [1]: 2.7 nM
SMILES: CCCCCCCCCCCCCCC[C@H](N)C(=O)NCCCN[C@H](C(=O)O)[C@H](O[C@@H]1O[C@H](CN)[C@@H](O)[C@H]1O)[C@H]1O[C@@H](n2ccc(=O)[nH]c2=O)[C@H](O)[C@@H]1O

- MIC (Pseudomonas aeruginosa [7]): 16 µg/mL (≈ 18.6 µM)
- IC50 [1]: 1.4 nM
SMILES: CC[C@H](C)[C@H](NC(=O)N[C@@H](Cc1c[nH]c2ccccc12)C(=O)O)C(=O)N[C@H](C(=O)N/C=C1\O[C@@H](n2ccc(=O)[nH]c2=O)[C@H](O)[C@@H]1O)[C@H](C)N(C)C(=O)[C@@H](N)Cc1cccc(O)c1

- MIC (Pseudomonas aeruginosa [7]): 16 µg/mL (≈ 18.9 µM)
- IC50 [1]: 1.5 nM
SMILES: CC(C)[C@H](NC(=O)N[C@@H](Cc1c[nH]c2ccccc12)C(=O)O)C(=O)N[C@H](C(=O)N/C=C1\O[C@@H](n2ccc(=O)[nH]c2=O)[C@H](O)[C@@H]1O)[C@H](C)N(C)C(=O)[C@@H](N)Cc1cccc(O)c1

- IC50 [1]: > 1000 nM
SMILES: CCCCCCCCCCCCCCCC(=O)N[C@@H](C)C(=O)N[C@H](C(=O)N/C=C1\O[C@@H](n2ccc(=O)[nH]c2=O)[C@H](O)[C@@H]1O)[C@H](C)N(C)C(=O)[C@@H](N)Cc1cccc(O)c1
